In patent publication US6472526B1, “Imidazole derivatives having an inhibitory activity for farnesyl transferase and process for preparation thereof” (LG Chemical Ltd., priority 1997, dated 2002) one finds IC50 data, which are given here for 30 compounds.

Bounds are passed on as bounds.

Experiment [1] deals with T1, Ras farnesyl transferase (Homo sapiens, UniProt P49354+P49356).
T1 construct: made in house
In words: In vitro inhibitory activity for Ras farnesyl transferase, H-Ras substrate. It counts as biochemical.

Experiment [2] addresses T1, Ras farnesyl transferase. As to the kind of experiment: In vitro inhibitory activity for Ras farnesyl transferase, K-Ras substrate. It counts as biochemical.
For experiment [3], the target named is T2, Ras farnesyl transferase (Rattus norvegicus, UniProt Q02293+Q04631).
T2 construct: endogenous in cells; host or cells: Rat2 fibroblasts transformed with H-Ras or with an H-Ras/K-Ras C-terminus fusion
As to the kind of experiment: In vivo (cellular) inhibitory activity for Ras farnesyl transferase, Rat2 cell line which expresses C-Harvey-Ras protein. It counts as cell-based. In outline: (§1)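 Transformed Rat2 fibroblasts (H-Ras or H-Ras/K-Ras polybasic-tail fusion) treated with compound in 1% DMSO; after 4 h labelled with [35S]methionine 150 μCi/ml for 20 h. Lysates immunoprecipitated with anti-Ras Y13-259, resolved by 13.5% SDS-PAGE and autoradiography; CIC50 = concentration inhibiting 50% of Ras farnesylation from band intensities.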

Experiment [4] concerns the target T2, Ras farnesyl transferase. In words: In vivo (cellular) inhibitory activity for Ras farnesyl transferase, Rat2 cell line transformed with fused protein of H-Ras substituted with polybasic lysine domain at C-terminus of K-Ras. The format is cell-based. In outline: as §1
The mark [5] stands for this setting: recombinant farnesyl transferase 4.5 nM, Ras substrate protein 1.5 μM, tritium-farnesylpyrophosphate 0.15 μM, 30 minutes at 37° C., read-out: H-Ras IC50.
Setting [6] is: in vitro farnesyl transferase assay, K-Ras, read-out: K-Ras IC50.
[7] abbreviates: Rat2 cell line expressing C-Harvey-Ras, concentration inhibiting 50% of farnesyl bonding of Ras protein, read-out: H-Ras CIC50.
The mark [8] stands for this setting: Rat2 cell line transformed with H-Ras fused with polybasic lysine domain of K-Ras C-terminus, concentration inhibiting 50% of farnesyl bonding, read-out: K-Ras CIC50.

In the case of `O=C(NCc1ccccc1)c1cn(Cc2c[nH]cn2)cc1-c1cccc2ccccc12` [Compound 83], the IC50 on Ras farnesyl transferase [1] (setting [5]) was 0.26 µM; on Ras farnesyl transferase [2] (setting [6]), 18.5 µM; on Ras farnesyl transferase [3] (setting [7]) it was 1 to 50 µM; on Ras farnesyl transferase [4] (setting [8]), 10 to 100 µM.
The like results for `O=C(c1cn(Cc2c[nH]cn2)cc1-c1cccc2ccccc12)N1CCCCC1` [Compound 84] were, in that order, 0.72 µM, 1.83 µM, 1 to 50 µM and 10 to 100 µM.
The like results for `O=C(c1cn(Cc2c[nH]cn2)cc1-c1cccc2ccccc12)N1CCOCC1` [Compound 85] were, in that order, 0.03 µM, 0.1 to 10 µM, 4 µM and above 50 µM.
The corresponding values for `O=C(c1cn(Cc2c[nH]cn2)cc1-c1cccc2ccccc12)N1CCSCC1` [Compound 86] are 0.03 µM, 0.1 to 10 µM, 2 µM and above 50 µM.
Take `O=C(c1cn(Cc2c[nH]cn2)cc1-c1cccc2ccccc12)N1CCS(=O)(=O)CC1` [Compound 87]: the IC50 was 0.06 µM at Ras farnesyl transferase [1] (setting [5]), 0.1 to 10 µM on Ras farnesyl transferase [2] (setting [6]), 1 to 50 µM at Ras farnesyl transferase [3] (setting [7]) and 10 to 100 µM at Ras farnesyl transferase [4] (setting [8]).
`O=C(c1cn(Cc2c[nH]cn2)cc1-c1cccc2ccccc12)N1CCNCC1` [Compound 88]: the IC50 on Ras farnesyl transferase [1] (setting [5]) was 0.6 µM; at Ras farnesyl transferase [2] (setting [6]), 0.1 to 10 µM; on Ras farnesyl transferase [3] (setting [7]), 1 to 50 µM; on Ras farnesyl transferase [4] (setting [8]) it was 10 to 100 µM.
For the compound `O=C(c1cn(Cc2c[nH]cn2)cc1-c1cccc2ccccc12)N1CCSC1` [Compound 90], the IC50 on Ras farnesyl transferase [1] (setting [5]) was 0.0425 µM; at Ras farnesyl transferase [2] (setting [6]) it was 0.1 to 10 µM; at Ras farnesyl transferase [3] (setting [7]), 1 to 50 µM; at Ras farnesyl transferase [4] (setting [8]), 10 to 100 µM.
Regarding `O=C(c1cn(Cc2c[nH]cn2)cc1-c1cccc2ccccc12)N1CCC(O)CC1` [Compound 91], the IC50 at Ras farnesyl transferase [1] (setting [5]) is 2.15 µM; on Ras farnesyl transferase [2] (setting [6]), 0.1 to 10 µM; at Ras farnesyl transferase [3] (setting [7]), 1 to 50 µM; on Ras farnesyl transferase [4] (setting [8]), 10 to 100 µM.
With `O=C1CCN(C(=O)c2cn(Cc3c[nH]cn3)cc2-c2cccc3ccccc23)CC1` [Compound 92], the IC50 is 0.07 µM at Ras farnesyl transferase [1], 0.1 to 10 µM on Ras farnesyl transferase [2], 1 to 50 µM at Ras farnesyl transferase [3] and 10 to 100 µM at Ras farnesyl transferase [4].
Turning to `O=C(NCCO)c1cn(Cc2c[nH]cn2)cc1-c1cccc2ccccc12` [Compound 93], the IC50 was 0.32 µM on Ras farnesyl transferase [1] (setting [5]), 0.1 to 10 µM at Ras farnesyl transferase [2] (setting [6]), 1 to 50 µM on Ras farnesyl transferase [3] (setting [7]) and 10 to 100 µM at Ras farnesyl transferase [4] (setting [8]).
As to `CN(CCO)C(=O)c1cn(Cc2c[nH]cn2)cc1-c1cccc2ccccc12` [Compound 94], the IC50 on Ras farnesyl transferase [1] (setting [5]) is 0.2 µM; on Ras farnesyl transferase [2] (setting [6]) it was 0.1 to 10 µM; on Ras farnesyl transferase [3] (setting [7]), 1 to 50 µM; at Ras farnesyl transferase [4] (setting [8]) it was 10 to 100 µM.
As for `COCCN(C)C(=O)c1cn(Cc2c[nH]cn2)cc1-c1cccc2ccccc12` [Compound 95], the IC50 on Ras farnesyl transferase [1] (setting [5]) is 0.0007 µM; on Ras farnesyl transferase [2] (setting [6]), 0.1 to 1 µM; at Ras farnesyl transferase [3] (setting [7]), 0.01 to 0.1 µM; at Ras farnesyl transferase [4] (setting [8]), 10 to 50 µM.
The like results for `O=C(c1cn(Cc2c[nH]cn2)cc1-c1ccnc2ccccc12)N1CCOCC1` [Compound 96] were, in that order, 0.23 µM, 0.1 to 10 µM, 1 to 50 µM and 10 to 100 µM.
The corresponding values for `O=C(c1cn(Cc2c[nH]cn2)cc1-c1ccc2c3c(cccc13)CC2)N1CCOCC1` [Compound 97] are 12 µM, 10 to 100 µM, 10 to 100 µM and 10 to 100 µM.
The like results for `N#Cc1ccc(CNC(=O)c2cn(Cc3c[nH]cn3)cc2-c2cccc3ccccc23)cc1` [Compound 98] were, in that order, 0.9 µM, 0.1 to 10 µM, 1 to 50 µM and 10 to 100 µM.
Regarding `CSCC[C@H](NC(=O)c1cn(Cc2cncn2Cc2ccc(C#N)cc2)cc1-c1cccc2ccccc12)C(=O)O` [Compound 101, (S)-1-[1-(4-Cyanobenzyl)-1H-imidazol-5-yl]methyl-3-[N-(1-hydroxycarbonyl-3-methylthio)propyl]carbamoyl-4(naphthalen-1-yl)-1H-pyrrole], the IC50 at Ras farnesyl transferase [1] (setting [5]) was 0.01 µM; at Ras farnesyl transferase [2] (setting [6]), 0.8 µM; on Ras farnesyl transferase [3] (setting [7]), above 5 µM; at Ras farnesyl transferase [4] (setting [8]), above 50 µM.
The corresponding values for `COC(=O)[C@H](CC(C)C)NC(=O)c1cn(Cc2cncn2Cc2ccc(C#N)cc2)cc1-c1cccc2ccccc12` [Compound 102] are 0.45 µM, 22 µM, 1 to 50 µM and above 50 µM.
The corresponding values for `CC(C)C[C@H](NC(=O)c1cn(Cc2cncn2Cc2ccc(C#N)cc2)cc1-c1cccc2ccccc12)C(=O)O` [Compound 103] are 0.064 µM, 1.7 µM, 0.1 to 10 µM and 10 to 100 µM.
The like results for `N#Cc1ccc(Cn2cncc2Cn2cc(C(=O)N3CCOCC3)c(-c3cccc4ccccc34)c2)cc1` [Compound 104] were, in that order, 0.0005 µM, 0.006 µM, below 0.05 µM and below 10 µM.
As to `CN1CCN(C(=O)c2cn(Cc3cncn3Cc3ccc(C#N)cc3)cc2-c2cccc3ccccc23)CC1` [Compound 105], the IC50 on Ras farnesyl transferase [1] (setting [5]) is 0.0004 µM; at Ras farnesyl transferase [2] (setting [6]), 0.09 µM; on Ras farnesyl transferase [3] (setting [7]), 0.05 µM; on Ras farnesyl transferase [4] (setting [8]) it was above 50 µM.
Regarding `O=C(c1cn(CCn2ccnc2)cc1-c1cccc2ccccc12)N1CCOCC1` [Compound 106], the IC50 on Ras farnesyl transferase [1] (setting [5]) is 0.9 µM; on Ras farnesyl transferase [2] (setting [6]) it was 10 to 100 µM; at Ras farnesyl transferase [3] (setting [7]), 1 to 50 µM; on Ras farnesyl transferase [4] (setting [8]) it was 10 to 100 µM.
`COC(=O)[C@H](CCSC)NC(=O)c1cn(CCCc2c[nH]cn2)cc1-c1cccc2ccccc12` [Compound 107, (S)-1-[3-(1H-Imidazol-4-yl)propyl]-3-[1N-(1-methoxycarbonyl-3-methylthio)propyl]carbamoyl-4-(naphthalen-1-yl)-1H-pyrrole]: the IC50 is 10 µM on Ras farnesyl transferase [1] (setting [5]), 0.1 to 10 µM at Ras farnesyl transferase [2] (setting [6]), 1 to 50 µM on Ras farnesyl transferase [3] (setting [7]) and 10 to 100 µM on Ras farnesyl transferase [4] (setting [8]).
As to `CSCC[C@H](NC(=O)c1cn(CCCc2c[nH]cn2)cc1-c1cccc2ccccc12)C(=O)O` [Compound 108], the IC50 on Ras farnesyl transferase [1] (setting [5]) is 0.26 µM; at Ras farnesyl transferase [2] (setting [6]) it was 0.1 to 10 µM; on Ras farnesyl transferase [3] (setting [7]), 1 to 50 µM; on Ras farnesyl transferase [4] (setting [8]), 10 to 100 µM.
Regarding `O=C(c1cn(CCCc2c[nH]cn2)cc1-c1cccc2ccccc12)N1CCOCC1` [Compound 109], the IC50 on Ras farnesyl transferase [1] (setting [5]) was 8.6 µM; on Ras farnesyl transferase [2] (setting [6]), 1 to 50 µM; at Ras farnesyl transferase [3] (setting [7]), 1 to 50 µM; on Ras farnesyl transferase [4] (setting [8]) it was 10 to 100 µM.
`COCCN(C)C(=O)c1cn(Cc2cncn2Cc2ccc(Br)cc2)cc1-c1cccc2ccccc12` [Compound 111, 1-[1-(4-Bromobenzyl)-1H-imidazol-5-yl]methyl-3-[N-(2-methoxyethyl)-N-methyl]carbamoyl-4-(naphthalen-1-yl)-1H-pyrrole]: the IC50 at Ras farnesyl transferase [1] (setting [5]) worked out at 0.002 µM; on Ras farnesyl transferase [2] (setting [6]), 0.002 µM; at Ras farnesyl transferase [3] (setting [7]), 0.03 µM; on Ras farnesyl transferase [4] (setting [8]), 4 µM.
Take `N#Cc1ccc(Cn2cncc2Cn2cc(C(=S)N3CCOCC3)c(-c3cccc4ccccc34)c2)cc1` [Compound 113, 1-[1-(4-Cyanobenzyl)-1H-imidazol-5-yl]methyl-3-(morpholin-4-yl)thiocarbonyl-4-(naphthalen-1-yl)-1H-pyrrole]: the IC50 was 0.004 µM on Ras farnesyl transferase [1] (setting [5]), below 0.1 µM at Ras farnesyl transferase [2] (setting [6]), below 0.1 µM at Ras farnesyl transferase [3] (setting [7]) and 10 to 100 µM on Ras farnesyl transferase [4] (setting [8]).
For `COCCN(C)C(=O)c1cn(Cc2cncn2C)cc1-c1cccc2ccccc12` [Compound 114, 3-[N-(2-Methoxyethyl)-N-methyl]carbamoyl-1-(1-methyl-1H-imidazol-5-yl)methyl-4-(naphthalen-1-yl)-1H-pyrrole], the IC50 is 0.001 µM on Ras farnesyl transferase [1] (setting [5]), 0.1 µM on Ras farnesyl transferase [2] (setting [6]), 0.015 µM on Ras farnesyl transferase [3] (setting [7]) and below 100 µM at Ras farnesyl transferase [4] (setting [8]).
The like results for `COCCN(C)C(=O)c1cn(Cc2cncn2CC(C)C)cc1-c1cccc2ccccc12` [Compound 115, 1-(1-Isobutyl-1H-imidazol-5-yl)methyl-3-[N-(2-methoxyethyl)-N-methyl]carbamoyl-4-(naphthalen-1-yl)-1H-pyrrole] were, in that order, 0.002 µM, 0.035 µM, 0.025 µM and below 50 µM.
The like results for `COCCN(C)C(=O)c1cn(Cc2cncn2CC2CCCCC2)cc1-c1cccc2ccccc12` [Compound 116, 1-(1-Cyclohexylmethyl-1H-imidazol-5-yl)methyl-3-[N-(2-methoxyethyl)-N-methyl]carbamoyl-4-(naphthalen-1-yl)-1H-pyrrole] were, in that order, 0.004 µM, 0.062 µM, 0.03 µM and below 50 µM.
Consider `CN1CCN(C(=O)c2cn(Cc3cncn3Cc3ccc(Br)cc3)cc2-c2cccc3ccccc23)CC1` [Compound 125, 1-[1-(4-Bromobenzyl)-1H-imidazol-5-yl]methyl-3-[4-methylpiperazin-1-yl]carbonyl-4-(naphthalen-1-yl)-1H-pyrrole], for which the IC50 at Ras farnesyl transferase [1] (setting [5]) was 0.002 µM; on Ras farnesyl transferase [2] (setting [6]), 0.004 µM; at Ras farnesyl transferase [3] (setting [7]), 0.006 µM; on Ras farnesyl transferase [4] (setting [8]), 4 µM.
